Data reported in patent publication US20230293526A1, “METHOD FOR TREATING CANCER WITH A REVERSE TRANSCRIPTASE INHIBITOR” (PrimeFour Therapeutics, Inc., priority 2020, published 2023).

System: MCAS
Test: Cell proliferation CellTiterGlo Ex.2
Assay type: cell-based
Settings: MCAS (Ovary), 72 h
Procedure, shortened: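 Cells were seeded, incubated overnight at 37 °C, then dosed at 10, 3, 1, 0.3, 0.1, 0.03, 0.01 and 0.003 μM for 72 h (5% or 10% CO2). CellTiterGlo luminescence gave percent viability relative to 0.10% DMSO (high) and 10 μM staurosporine (low) controls.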

C#C[C@]1(CO)O[C@@H](n2cnc3c(=O)[nH]c(N)nc32)C[C@@H]1O [compound 13]
IC50: > 10 µM
